In BindingDB's records for doi:10.7270/Q2NC5ZRN (Burnham Center For Chemical Genomics, 2012):
pIC50: −log10 of the molar value.

target: DNA (cytosine-5)-methyltransferase 1 (Homo sapiens, UniProt P26358); assay: inhibition of DNA methylation by DNMT1 – biochemical, fluorescent molecular beacon, confirmation (AID 602386)
Sequence (P26358 whole entry): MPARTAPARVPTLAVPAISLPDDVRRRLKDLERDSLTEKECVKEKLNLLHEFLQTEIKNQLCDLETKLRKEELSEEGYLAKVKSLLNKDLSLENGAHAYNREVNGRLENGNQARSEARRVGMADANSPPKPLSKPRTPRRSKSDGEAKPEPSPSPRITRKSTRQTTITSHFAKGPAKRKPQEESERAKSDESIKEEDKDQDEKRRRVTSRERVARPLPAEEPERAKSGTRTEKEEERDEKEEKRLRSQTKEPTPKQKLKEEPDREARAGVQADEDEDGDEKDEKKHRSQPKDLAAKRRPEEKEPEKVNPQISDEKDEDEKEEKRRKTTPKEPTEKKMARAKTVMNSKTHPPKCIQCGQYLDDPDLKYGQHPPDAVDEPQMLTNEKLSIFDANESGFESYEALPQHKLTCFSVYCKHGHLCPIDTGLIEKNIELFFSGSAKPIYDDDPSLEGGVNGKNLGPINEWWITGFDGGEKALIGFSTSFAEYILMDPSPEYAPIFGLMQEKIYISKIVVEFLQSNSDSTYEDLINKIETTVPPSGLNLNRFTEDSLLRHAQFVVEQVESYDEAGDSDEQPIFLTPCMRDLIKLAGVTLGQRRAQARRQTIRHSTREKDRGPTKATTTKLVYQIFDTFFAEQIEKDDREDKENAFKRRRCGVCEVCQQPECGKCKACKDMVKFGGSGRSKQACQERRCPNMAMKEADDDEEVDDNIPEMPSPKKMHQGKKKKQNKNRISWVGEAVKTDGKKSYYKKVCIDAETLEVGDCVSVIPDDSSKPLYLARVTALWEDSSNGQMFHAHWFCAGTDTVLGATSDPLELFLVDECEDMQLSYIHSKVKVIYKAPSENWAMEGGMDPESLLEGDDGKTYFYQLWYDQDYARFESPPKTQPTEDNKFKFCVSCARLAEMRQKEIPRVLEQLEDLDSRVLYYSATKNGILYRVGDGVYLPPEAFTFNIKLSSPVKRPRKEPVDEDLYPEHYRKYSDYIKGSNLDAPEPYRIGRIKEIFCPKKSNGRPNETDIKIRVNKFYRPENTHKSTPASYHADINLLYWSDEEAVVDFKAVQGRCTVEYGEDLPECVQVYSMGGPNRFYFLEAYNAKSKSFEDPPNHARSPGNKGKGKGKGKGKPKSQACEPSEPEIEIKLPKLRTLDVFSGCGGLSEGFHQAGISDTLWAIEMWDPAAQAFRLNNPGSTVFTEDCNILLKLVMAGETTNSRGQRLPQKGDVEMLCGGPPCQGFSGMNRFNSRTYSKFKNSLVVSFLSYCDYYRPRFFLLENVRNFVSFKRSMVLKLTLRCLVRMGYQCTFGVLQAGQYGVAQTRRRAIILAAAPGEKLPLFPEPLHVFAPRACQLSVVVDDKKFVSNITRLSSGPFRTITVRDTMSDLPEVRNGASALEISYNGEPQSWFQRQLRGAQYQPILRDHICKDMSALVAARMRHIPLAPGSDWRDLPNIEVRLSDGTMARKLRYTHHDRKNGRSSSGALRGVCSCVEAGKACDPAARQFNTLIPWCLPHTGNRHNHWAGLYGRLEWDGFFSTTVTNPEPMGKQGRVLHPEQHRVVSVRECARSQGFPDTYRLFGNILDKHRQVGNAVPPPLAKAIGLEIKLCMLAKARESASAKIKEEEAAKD

SMILES	pIC50
CCOC1=CC(=Cc2c(-c3ccccc3)[nH]n(-c3nc(-c4ccc(Br)cc4)cs3)c2=O)C=CC1=O	5.36
O=C1N=c2ccccc2=C1NNc1ccc(F)cc1	4.71
CCOc1ccc(CN=Nc2ccc(S(=O)(=O)Nc3ccccc3C(=O)O)cc2[N+](=O)[O-])cc1	5.24
CCCCn1c(NC(=S)Nc2ccccc2)nc2ccccc21	5.99
C=CCOc1ccc(CN=Nc2ccc(S(=O)(=O)Nc3ccccc3C(=O)O)cc2[N+](=O)[O-])cc1OC [2-[[4-[2-[(3-methoxy-4-prop-2-enoxy-phenyl)methylidene]hydrazinyl]-3-nitro-phenyl]sulfonylamino]benzoic acid]	5.27
COc1cc(NS(=O)(=O)c2ccc(NC(=S)NC(=O)c3sc4ccccc4c3Cl)cc2)nc(OC)n1 [3-chloranyl-N-[[4-[(2,6-dimethoxypyrimidin-4-yl)sulfamoyl]phenyl]carbamothioyl]-1-benzothiophene-2-carboxamide]	4.39
NC(=NNC=c1ccc(=C2C=CC(=O)C(C(=O)O)=C2)o1)N[N+](=O)[O-] [5-(5-{2-[amino(nitroimino)methyl]carbonohydrazonoyl}-2-furyl)-2-hydroxybenzoic acid]	5.40
Cc1[nH]n(-c2ccccc2)c(=O)c1C=C1NC(=S)NC1=O [5-methyl-4-[(Z)-(5-oxo-2-sulfanylideneimidazolidin-4-ylidene)methyl]-2-phenyl-4H-pyrazol-3-one]	5.08
CC=CC=CC(=O)C1C(=O)[C@]2(C)C(=O)C(C)(O)[C@H]1[C@H]([C@]1(C)OC(=O)C(C)C1=O)[C@H]2C(=O)C=CC=CC (stereo partly drawn) [(1S,4R,6E,7S,8R)-8-[(2E,4E)-hexa-2,4-dienoyl]-2-hydroxy-7-[(2S)-5-hydroxy-2,4-dimethyl-3-oxofuran-2-yl]-6-[(2E,4E)-1-hydroxyhexa-2,4-dienylidene]-2,4-dimethylbicyclo[2.2.2]octane-3,5-dione]	5.28
COc1ccccc1N1CC=[N+](N[CH-]c2ccc(Cl)c([N+](=O)[O-])c2)CC1 [(E)-1-(4-chloro-3-nitrophenyl)-N-[4-(2-methoxyphenyl)piperazin-1-yl]methanimine]	< 4.00

Continued, values first:

pIC50	SMILES
< 4.00	Cc1ccc(C(=O)N[n+]2cc(O)[c-](-c3nc(-c4cccc([N+](=O)[O-])c4)cs3)c2N)cc1 [MLS000391743]
< 4.00	CCN(CC)CCOc1ccc2c(c1)C(N=O)c1cc(OCCN(CC)CC)ccc1-2 [MLS000518859]
5.49	O=C(/C=C/c1ccco1)NCC(=O)NNC1=c2ccccc2=NC1=O [MLS001075666]
5.49	CSc1ccc(CN=Nc2ccc(S(=O)(=O)Nc3ccccc3C(=O)O)cc2[N+](=O)[O-])cc1 [MLS002245633]
5.36	COc1ccc(OC)c(-n2c(O)c3o[nH]c(-c4ccccc4Cl)c-3c2=O)c1 [SMR000046218]
5.93	C=c1[nH]n(-c2cccc(C(=O)O)c2)c(=O)c1=CC=Cc1ccco1 [SMR000113614]
5.54	COc1ccc(C=c2c(=CSc3ccc(Cl)cc3)[nH]n(-c3nc4ccccc4s3)c2=O)cc1 [SMR000193462]
5.12	NS(=O)(=O)c1ccc(NN=C2C=CC(=O)NC2=O)cc1 [SMR000528591]
5.07	O=C(CSc1nc(O)cc(=O)[nH]1)Nc1ccccc1[N+](=O)[O-] [SMR000620617]
